# Measured values taken from patent publication US11530385B2, “Hormone responsive tissue culture system and uses thereof” (Whitehead Institute for Biomedical Research, priority 2007, dated 2022).
# What was measured:
# [1] = test system: BPLER xenograft tumors; assay: hormone responsiveness of BPLER xenograft tumors in mice; format: in vivo; settings: estrogen treated animals
# Description: In one respect, the histology of tumors arising from BPLER is very similar, if not identical to human ductal breast carcinoma. There is prominent luminal marker CK18 expression in BPLER cells and tumors. There is also prominent expression of E-cadherin, a marker indicating polarization of cells. Morphology wise, BPLER xenografts form glandular structures similar to those seen in human tumors. BPLER xenografts into mammary fat pads are invasive into adjacent skeletal muscle, and cause a desmoplastic reaction. BPLER xenografts also express progesterone receptors based on immunohistological staining of xenograft tumor samples. In addition, BPLER tumor sizes respond to estrogen treatment, in that xenograft tumors weighed about 70-100% more in estrogen treated animals than in control animals. BPLER tumors spread within the breast tissue of mice, and the multifocal growth is consistent with lymphovascular invasion and spread of tumors. […]
# Analysis of tumorigenicity and metastasis: Single-cell suspensions were prepared in a WIT:Matrigel (1:1) mixture and injected in 25 μL (orthotopic) and 100 μl (subcutaneous) volumes. […] Metastasis to lungs and other tissues was analyzed initially under a dissecting microscope (Leica) in fresh tissues, followed by microscopic examination of hematoxylin-eosin and immunostained sections of formalin-fixed and paraffin-embedded tissues. […]
# [2] = test system: BPLE cells; assay: in vitro growth inhibition by estrogen antagonist, BPLE cells; format: cell-based, human; settings: data not shown
# Description: (§1) Expression of CK18 and BER-Ep4 both confirm the adenocarcinoma features and exclude a squamous tumor. E-cadherin excludes a mesenchymal tumor. BPLER xenografts express progesterone receptor, which is consistent with the notion that BPLER xenografts are hormone-responsive. This was confirmed by experiments in which estrogen-progesterone treatment of mice increased subject tumor size approximately two-fold compared to untreated mice. […] Similar tumor xenografts from cells cultured in the MEGM media was negative for progesterone receptor expression and the in vitro growth inhibition of the cells with ICI 182,780 was less than 20% (data not shown).
# [3] = test system: BPEC cells; assay: in vitro growth inhibition by estrogen antagonist, BPEC cells; format: cell-based, human; settings: data not shown
# Description: as §1
# [4] = test system: BPE cells; assay: in vitro growth inhibition by estrogen antagonist, BPE cells; format: cell-based, human; settings: data not shown
# Description: as §1
# [5] = test system: cells cultured in the MEGM media; assay: in vitro growth inhibition by estrogen antagonist, cells cultured in the MEGM media; format: cell-based, human; settings: data not shown
# Description: as §1
compound,measurement,setting,value
estrogen,xenograft tumor weight increase in treated animals vs control animals,[1],70-100%
"C[C@]12CC[C@@H]3c4ccc(O)cc4C[C@@H](CCCCCCCCC[S+]([O-])CCCC(F)(F)C(F)(F)F)[C@H]3[C@@H]1CC[C@@H]2O (some centres unmarked) [ICI 182,780]",growth inhibition,[2],> 80%
same,growth inhibition,[3],> 80%
same,growth inhibition,[4],> 80%
same,in vitro growth inhibition,[5],less than 20%
